Patent US20100273816A1, “Quinazoline Compounds” (priority 2007, published 2010)

Assays:
human LXRα = biological target: T1, human LXRα (Homo sapiens, UniProt Q13133); test: Ligand-binding test procedure for human LXRα (3H T0901317 tracer, flash plates); conditions: biotinylated hLXRα from E. coli extract, +4° C. over night, read-out: hLXRa binding assay Mean IC50
T1 construct: biotin (biotinylated); made in house; host or cells: E. coli (crude extract)
T1 sequence (Q13133 1-447): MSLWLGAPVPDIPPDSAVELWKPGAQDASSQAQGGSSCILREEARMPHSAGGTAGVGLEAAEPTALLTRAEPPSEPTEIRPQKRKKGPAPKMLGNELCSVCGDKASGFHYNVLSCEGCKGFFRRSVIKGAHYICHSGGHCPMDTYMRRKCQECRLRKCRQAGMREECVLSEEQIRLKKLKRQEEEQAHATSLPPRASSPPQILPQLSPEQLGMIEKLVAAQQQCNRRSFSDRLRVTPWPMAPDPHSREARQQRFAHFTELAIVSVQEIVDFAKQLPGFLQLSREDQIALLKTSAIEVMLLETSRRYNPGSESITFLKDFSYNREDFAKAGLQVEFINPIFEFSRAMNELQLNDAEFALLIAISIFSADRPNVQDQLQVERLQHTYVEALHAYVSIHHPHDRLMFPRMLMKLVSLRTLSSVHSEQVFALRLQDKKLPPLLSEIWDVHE
Procedure: II. Ligand-Binding Test Procedure for Human LXRα.
(§1) Buffer: 100 mM KCl, 100 mM TRIS (pH 7.4 at +4° C.), 8.6% glycerol, 0.1 mM PMSF*, 2 mM MTG*, 0.2% CHAPS (* not used in wash buffer)
Receptor source: E. coli extract from cells expressing biotinylated hLXRα. Extract was made in a similar buffer as above, but with 50 mM TRIS.
(§2) Washed streptavidin and coated flash plates with wash buffer.
(§3) Diluted receptor extract to give Bmax ˜4000 cpm and add to the wells.
(§4) Wrapped the plates in aluminum foil and stored them at +4° C. over night.
(§5) Made a dilution series in DMSO of the test ligands.
(§6) Made a 5 nM solution of the radioactive tracer in buffer.
Mixed 250 μl diluted tracer with 5 μl of the test ligand from each concentration of the dilution series.
(§7) Washed the receptor-coated flash plates.
(§8) Added 200 μl per well of the ligand/radiolabel mixture to the receptor-coated flash plates.
(§9) Wrapped the plates in aluminum foil and incubate at +4° C. over night.
(§10) Aspirated wells, and wash the flashed plates. Sealed the plate.
(§11) Measured the remaining radioactivity in the plate.

human LXRβ = biological target: T2, human LXRβ (Homo sapiens, UniProt P55055); test: Ligand-binding test procedure for human LXRβ (3H T0901317 tracer, flash plates); conditions: biotinylated hLXRβ from E. coli extract, +4° C. over night, read-out: hLXRB binding assay Mean IC50
T2 construct: biotin (biotinylated); made in house; host or cells: E. coli (crude extract)
T2 sequence (P55055 1-460): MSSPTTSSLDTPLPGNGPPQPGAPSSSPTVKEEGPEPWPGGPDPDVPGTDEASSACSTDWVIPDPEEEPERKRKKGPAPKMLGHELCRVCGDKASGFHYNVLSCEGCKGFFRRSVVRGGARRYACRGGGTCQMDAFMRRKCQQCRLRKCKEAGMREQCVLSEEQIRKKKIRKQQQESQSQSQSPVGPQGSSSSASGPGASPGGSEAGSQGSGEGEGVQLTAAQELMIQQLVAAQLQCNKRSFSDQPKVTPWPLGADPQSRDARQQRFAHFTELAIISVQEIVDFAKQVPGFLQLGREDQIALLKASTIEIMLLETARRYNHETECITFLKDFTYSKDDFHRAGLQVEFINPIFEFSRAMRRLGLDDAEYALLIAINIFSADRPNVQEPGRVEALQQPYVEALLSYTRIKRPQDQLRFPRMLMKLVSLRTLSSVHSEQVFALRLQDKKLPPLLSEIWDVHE
Procedure: I. Ligand-Binding Test Procedure for Human LXRβ.
as §1
Receptor source: E. coli extract from cells expressing biotinylated hLXRβ. Extract was made in a similar buffer as above, but with 50 mM TRIS.
as §2, §3, §4, §5, §6
Mixed 250 μl diluted tracer with 50 of the test ligand from each concentration of the dilution series.
as §7, §8, §9, §10, §11

With `O=S(=O)(CCCO)c1cccc(Oc2ccc(F)c(-c3ncnc4c(Cl)cccc34)c2)c1` [Example 73, 3-({3-[3-(8-chloroquinazolin-4-yl)-4-fluorophenoxy]phenyl}sulfonyl)propan-1-ol] the IC50 (human LXRα) was 2.52 µM and the IC50 (human LXRβ) was 0.182 µM.
Compound `CCCS(=O)(=O)c1ccc(Oc2cccc(-c3ncnc4c(C(F)(F)F)cccc34)c2)cc1` [Example 12, 4-{3-[4-(propylsulfonyl)phenoxy]phenyl}-8-(trifluoromethyl)quinazoline] has an IC50 (human LXRα) of over 1 µM and an IC50 (human LXRβ) of over 1 µM.
`CC(C)(C(=O)O)c1ccc(COc2cccc(-c3ncnc4c(C(F)(F)F)cccc34)c2)cc1` [Example 44, 2-methyl-2-[4-({3-[8-(trifluoromethyl)quinazolin-4-yl]phenoxy}methyl)phenyl]propanoic acid] was tested, and the IC50 (human LXRα) was over 1 µM and the IC50 (human LXRβ) was over 1 µM.
In the case of `Cc1nc(-c2cc(OCc3cccc(S(C)(=O)=O)c3)ccc2Cl)c2cccc(C(F)(F)F)c2n1` [Example 63, 4-(2-chloro-5-{[3-(methylsulfonyl)benzyl]oxy}phenyl)-2-methyl-8-(trifluoromethyl)quinazoline], the IC50 (human LXRα) is reported as 3.38 µM and the IC50 (human LXRβ) is reported as 0.181 µM.
`Cc1nc(-c2cccc(-c3cccc(S(C)(=O)=O)c3)c2)c2cccc(C(F)(F)F)c2n1` [Example 37, 4-(3′-Methanesulfonyl-biphenyl-3-yl)-2-methyl-8-trifluoromethyl-quinazoline] gave an IC50 (human LXRα) of 0.706 µM and an IC50 (human LXRβ) of 0.069 µM.
`O=S(=O)(CCCO)c1cc(Cl)cc(Oc2cccc(-c3ncnc4c(C(F)(F)F)cccc34)c2)c1` [Example 9, 3-[(3-chloro-5-{3-[8-(trifluoromethyl)quinazolin-4-yl]phenoxy}phenyl)sulfonyl]propan-1-ol] showed an IC50 (human LXRα) of over 1 µM.
In the case of `CS(=O)(=O)c1cccc(COc2cccc(-c3ncnc4c(C(F)(F)F)cccc34)c2)c1` [Example 25, 4-(3-{[3-(methylsulfonyl)benzyl]oxy}phenyl)-8-(trifluoromethyl)quinazoline], the IC50 (human LXRα) is reported as 2.83 µM and the IC50 (human LXRβ) is reported as 0.285 µM.
Work on `CC(C)S(=O)(=O)c1ccc(Oc2cccc(-c3ncnc4c(C(F)(F)F)cccc34)c2)cc1` [Example 13, 4-{3-[4-(isopropylsulfonyl)phenoxy]phenyl}-8-(trifluoromethyl)quinazoline] yielded an IC50 (human LXRα) of over 1 µM and an IC50 (human LXRβ) of 1.54 µM.
In the case of `CS(=O)(=O)c1cc(F)cc(Oc2cccc(-c3ncnc4c(C(F)(F)F)cccc34)c2)c1` [Example 20, 4-{3-[3-fluoro-5-(methylsulfonyl)phenoxy]phenyl}-8-(trifluoromethyl)quinazoline], the IC50 (human LXRα) is reported as 6.33 µM and the IC50 (human LXRβ) is reported as 0.398 µM.
Work on `CS(=O)(=O)c1cccc(Oc2cccc(-c3ncnc4c(Cl)cccc34)c2)c1` [Example 24, 8-chloro-4-{3-[3-(methylsulfonyl)phenoxy]phenyl}quinazoline] yielded an IC50 (human LXRα) of 5.32 µM and an IC50 (human LXRβ) of 0.295 µM.
In the case of `CCCS(=O)(=O)c1cccc(Oc2cccc(-c3ncnc4c(C(F)(F)F)cccc34)c2)c1` [Example 15, 4-{3-[3-(propylsulfonyl)phenoxy]phenyl}-8-(trifluoromethyl)quinazoline], the IC50 (human LXRα) is reported as 4.42 µM and the IC50 (human LXRβ) is reported as 0.449 µM.
Compound `CS(=O)(=O)c1cccc(-c2cccc(-c3ncnc4c(C(F)(F)F)cccc34)c2)c1` [Example 27, 4-(3′-Methanesulfonyl-biphenyl-3-yl)-8-trifluoromethyl-quinazoline] has an IC50 (human LXRα) of 1.67 µM and an IC50 (human LXRβ) of 0.194 µM.
Compound `O=C(O)Cc1ccc(COc2cccc(-c3ncnc4c(C(F)(F)F)cccc34)c2)cc1` [Example 45, [4-({3-[8-(trifluoromethyl)quinazolin-4-yl]phenoxy}methyl)phenyl]acetic acid] has an IC50 (human LXRα) of over 1 µM and an IC50 (human LXRβ) of 5.29 µM.
Compound `CCc1nc(-c2cccc(-c3cccc(S(C)(=O)=O)c3)c2)c2cccc(C(F)(F)F)c2n1` [Example 40, 2-ethyl-4-[3′-(methylsulfonyl)biphenyl-3-yl]-8-(trifluoromethyl)quinazoline] has an IC50 (human LXRα) of 1.14 µM and an IC50 (human LXRβ) of 0.097 µM.
With `CS(=O)(=O)c1cccc(-c2cccc(-c3nc(-c4ccccc4)nc4c(C(F)(F)F)cccc34)c2)c1` [Example 43, 4-[3′-(methylsulfonyl)biphenyl-3-yl]-2-phenyl-8-(trifluoromethyl)quinazoline] the IC50 (human LXRα) was 20.3 µM and the IC50 (human LXRβ) was 0.309 µM.
Compound `CC(C)S(=O)(=O)c1cccc(Oc2ccc(F)c(-c3ncnc4c(C(F)(F)F)cccc34)c2)c1` [Example 54, 4-{2-fluoro-5-[3-(isopropylsulfonyl)phenoxy]phenyl}-8-(trifluoromethyl)quinazoline] has an IC50 (human LXRα) of 0.176 µM and an IC50 (human LXRβ) of 0.005 µM.
`CS(=O)(=O)c1cccc(Oc2ccc(F)c(-c3ncnc4c(Cl)cccc34)c2)c1` [Example 75, 8-chloro-4-{2-fluoro-5-[3-(methylsulfonyl)phenoxy]phenyl}quinazoline] was tested, and the IC50 (human LXRα) was 0.718 µM and the IC50 (human LXRβ) was 0.02 µM.
`CCCS(=O)(=O)c1cc(Cl)cc(Oc2cccc(-c3ncnc4c(C(F)(F)F)cccc34)c2)c1` [Example 8, 4-{3-[3-chloro-5-(propylsulfonyl)phenoxy]phenyl}-8-(trifluoromethyl)quinazoline] gave an IC50 (human LXRα) of over 1 µM and an IC50 (human LXRβ) of over 1 µM.
In the case of `CS(=O)(=O)c1cccc(Oc2cccc(-c3ncnc4c(C(F)(F)F)cccc34)c2)c1` [Example 4, 4-{3-[3-(Methylsulfonyl)phenoxy]phenyl}-8-(trifluoromethyl)quinazoline], the IC50 (human LXRα) is reported as 1.82 µM and the IC50 (human LXRβ) is reported as 0.151 µM.
Compound `CS(=O)(=O)c1cc(F)cc(Oc2ccc(F)c(-c3ncnc4c(C(F)(F)F)cccc34)c2)c1` [Example 55, 4-{2-fluoro-5-[3-fluoro-5-(methylsulfonyl)phenoxy]phenyl}-8-(trifluoromethyl)quinazoline] has an IC50 (human LXRα) of 0.782 µM and an IC50 (human LXRβ) of 0.035 µM.
Compound `CC(C)CCS(=O)(=O)c1cccc(Oc2cccc(-c3ncnc4c(C(F)(F)F)cccc34)c2)c1` [Example 17, 4-(3-{3-[(3-methylbutyl)sulfonyl]phenoxy}phenyl)-8-(trifluoromethyl)quinazoline] has an IC50 (human LXRα) of over 1 µM and an IC50 (human LXRβ) of over 1 µM.
For `CS(=O)(=O)c1cc(F)cc(Oc2ccc(F)c(-c3ncnc4c(Cl)cccc34)c2)c1` [Example 64, 8-chloro-4-{2-fluoro-5-[3-fluoro-5-(methylsulfonyl)phenoxy]phenyl}quinazoline], the IC50 (human LXRα) was 1.83 µM and the IC50 (human LXRβ) was 0.081 µM.
`Cc1nc(-c2cccc(Oc3cccc(S(C)(=O)=O)c3)c2)c2cccc(C(F)(F)F)c2n1` [Example 21, 2-methyl-4-{3-[3-(methylsulfonyl)phenoxy]phenyl}-8-(trifluoromethyl)quinazoline] was tested, and the IC50 (human LXRα) was 13.8 µM and the IC50 (human LXRβ) was 0.433 µM.
Work on `Cc1nc(-c2cc(Oc3cc(F)cc(S(C)(=O)=O)c3)ccc2Cl)c2cccc(C(F)(F)F)c2n1` [Example 61, 4-{2-chloro-5-[3-fluoro-5-(methylsulfonyl)phenoxy]phenyl}-2-methyl-8-(trifluoromethyl)quinazoline] yielded an IC50 (human LXRα) of 1.79 µM and an IC50 (human LXRβ) of 0.049 µM.
`COCCCS(=O)(=O)c1cccc(Oc2cccc(-c3ncnc4c(C(F)(F)F)cccc34)c2)c1` [Example 7, 4-(3-{3-[(3-methoxypropyl)sulfonyl]phenoxy}phenyl)-8-(trifluoromethyl)quinazoline] gave an IC50 (human LXRα) of 4.99 µM and an IC50 (human LXRβ) of 0.651 µM.
In the case of `CS(=O)(=O)c1cccc(COc2ccc(F)c(-c3ncnc4c(Cl)cccc34)c2)c1` [Example 66, 8-chloro-4-(2-fluoro-5-{[3-(methylsulfonyl)benzyl)oxy]phenyl}quinazoline], the IC50 (human LXRα) is reported as 1.54 µM and the IC50 (human LXRβ) is reported as 0.099 µM.
`CCS(=O)(=O)c1cccc(Oc2ccc(Cl)c(-c3ncnc4c(C(F)(F)F)cccc34)c2)c1` [Example 50, 4-{2-chloro-5-[3-(ethylsulfonyl)phenoxy]phenyl}-8-(trifluoromethyl)quinazoline] gave an IC50 (human LXRα) of 0.236 µM and an IC50 (human LXRβ) of 0.005 µM.
For `Cc1nc(-c2cccc(-c3ccc(S(C)(=O)=O)cc3)c2)c2cccc(C(F)(F)F)c2n1` [Example 38, 4-(4′-Methanesulfonyl-biphenyl-3-0)-2-methyl-8-trifluoromethyl-quinazoline], the IC50 (human LXRβ) was 6.27 µM.
